The numbers were not newly measured in US20200325234A1, “IMMUNE-BASED TREATMENT OF KRAS-VARIANT CANCER PATIENTS” (MIRA DX, INC., priority 2016, published 2020), which cites them from elsewhere.

Read-outs that look alike come from different tables or passages of the source.

In the data set the test system is KRAS-variant patients.
The mark [1] stands for this setting: KRAS-variant patients with non-small cell lung cancer (NSCLC).

Take `C#Cc1cccc(Nc2ncnc3cc(OCCOC)c(OCCOC)cc23)c1` [erlotonib]: the response to therapy result under setting [1] is “resistance”.
Regarding `CNC(=O)c1cc(Oc2ccc(NC(=O)Nc3ccc(Cl)c(C(F)(F)F)c3)cc2)ccn1` [sorafenib], under setting [1], the response to therapy entry was “sensitivity”.
Regarding `N.N.[Cl][Pt][Cl]` [cisplatin], the response to therapy entry (KRAS-variant patients with ovarian or head and neck cancer) is “resistance”.
